The subject of data set [1] is LPS-stimulated production of nitrite in RAW264.7 cell. As to the kind of experiment: Inhibition of LPS-stimulated nitrite (NO) production, Griess reaction. The data set is classed as cell-based, murine. To be noted: for IC50: Mus musculus, RAW264.7, RAW 264.7 cells, LPS 100 ng/mL, 24 h, Griess reaction, read-out: IC50 (decrease nitrite of LPS-stimulated production). An excerpt:
NO, produced from L-arginine by NO synthase, has various biological actions, e.g., as a defense and regulatory molecule for homeostatic equilibrium. However, in pathophysiologic conditions, such as inflammation, there is an increased production of NO by inducible NO synthase (iNOS). Macrophages have been expected to be an origin of inflammation, because they contain various chemical mediators that may be responsible for several inflammatory stages. The inhibitory activity toward NO production, induced by lipopolysaccharides (LPS), by murine macrophage-derived RAW264.7 cells was assayed.
(§1) A murine macrophage cell line RAW264.7 (BCRC No. 60001) was purchased from the Bioresources Collection and Research Center (BCRC, Hsinchu, Taiwan) of the Food Industry Research and Development Institute (Hsinchu, Taiwan). Cells were cultured in plastic dishes containing Dulbecco’s Modified Eagle Medium (DMEM, Sigma, St. Louis, MO, USA) supplemented with 10% fetal bovine serum (FBS, Sigma) in a CO2 incubator (5% CO2 in air) at 37 °C and subcultured every 3 days at a dilution of 1:5 using 0.05% trypsin-0.02% EDTA in Ca^2+-, Mg^2+-free phosphate-buffered saline (DPBS).
NO production was indirectly assessed by measuring the nitrite levels in the cultured media and serum determined by a colorimetric method based on the Griess reaction. The cells were incubated with butanolides (0, 3.125, 6.25, 12.5, 25 and 50 μg/mL) in the presence of LPS (100 ng/mL) at 37 °C for 24 h. Then, cells were dispensed into 96-well plates, and 100 μL of each supernatant was mixed with the same volume of Griess reagent (1% sulfanilamide, 0.1% naphthylethylenediamine dihydrochloride and 5% phosphoric acid) and incubated at room temperature for 10 min, the absorbance was measured at 540 nm with a Micro-Reader (Molecular Devices). Serum samples were diluted four times with distilled water and deproteinized by adding 1/20 volume of zinc sulfate (300 g/L) to a final concentration of 15 g/L. After centrifugation at 10,000 × g for 5 min at room temperature, 100 μL supernatant was applied to a microtiter plate well, followed by 100 μL of Griess reagent. After 10 min of color development at room temperature, the absorbance was measured at 540 nm with a Micro-Reader. By using sodium nitrite to generate a standard curve, the concentration of nitrite was measured form absorbance at 540 nm.
IC50 values were estimated using a non-linear regression algorithm (Sigma Plot 8.0; SPSS Inc. Chicago, IL, USA). Statistical evaluation was carried out by one-way analysis of variance (ANOVA followed by Scheffe’s multiple range tests).
Background: Griess reagent forms a coloured azo dye with nitrite.

The next data set deals with RAW264.7 cells. As to the kind of experiment: Cell viability (MTT) in the presence of LPS. Format: cell-based. The note with it: RAW 264.7 cells, 100 ng/mL LPS, 24 h. Here is the method: as §1
Cells (2 × 10^5) were cultured in 96-well plate containing DMEM supplemented with 10% FBS for 1 day to become nearly confluent. Then cells were cultured with compounds 1–5 in the presence of 100 ng/mL LPS (lipopolysaccharide) for 24 h. After that, the cells were washed twice with DPBS and incubated with 100 μL of 0.5 mg/mL MTT for 2 h at 37 °C testing for cell viability. The medium was then discarded and 100 μL dimethyl sulfoxide (DMSO) was added. After 30-min incubation, absorbance at 570 nm was read using a microplate reader (Molecular Devices, Sunnyvale, CA, USA).

As a reminder, the IC50 is the concentration that gives 50% inhibition. In the case of `C=CCCCCCCCCC/C=C1\C(=O)OC(C)[C@@H]1O` (stereo partly drawn) [Compound 3, (3Z,4α,5β)-3-(dodec-11-enylidene)-4-hydroxy-5-methylbutalactone], the IC50 in data set [1] amounted to 2.4 µM. The “LD50 (cell viability)” value in the data set on RAW264.7 cells came to 49.3 µM.

For `C=C1OC(=O)/C(=C/CCCCCCCCCCC)[C@H]1O` [Compound 5, dihydroisoobtusilactone], the IC50 in data set [1] came to 97.9 µM. Also, the “anti-inflammatory activity (in words)” value in data set [1] (RAW264.7 cells, LPS-stimulated nitrite production) was “no significant active”. Besides, the “LD50 (cell viability)” value in the data set on RAW264.7 cells was >178.6 µM.

For `C=CCCCCCCCCC/C=C1/C(=O)OC(C)[C@@H]1O` (stereo partly drawn) [Compound 4, (3E,4α,5β)-3-(dodec-11-enylidene)-4-hydroxy-5-methylbutalactone], the IC50 in data set [1] turned out to be 1.4 µM. The “LD50 (cell viability)” value in the data set with RAW264.7 cells is 67.1 µM.

For the compound `CCCCCCCCCCCC/C=C/C1=CC(C)OC1=O` (centres unmarked) [Compound 2, Akolactone A], the IC50 in data set [1] stood at 180 µM. For the same compound, the “LD50 (cell viability)” value in the data set on RAW264.7 cells is >211.9 µM.

Regarding `CCCCCCCCCCC=CC1C(=O)OC(C)C1O` (stereo not drawn) [Compound 1, 3β-((E)-dodec-1-enyl)-4β-hydroxy-5β-methyldihydrofuran-2-one], the half-inhibitory concentration (IC50) in data set [1] is 44.3 µM. Also, in the data set with RAW264.7 cells, the “LD50 (cell viability)” value amounted to 72.3 µM.

(Values after paper PMC6268235, “A New Butanolide Compound from the Aerial Part of Lindera akoensis with Anti-inflammatory Activity” (Molecules, 2012).)
